Where a chain is given by its changes, count along the chain named.
How the values were obtained:
CK2α [1] = biological target: T1, CK2α (Homo sapiens, UniProt P68400, K74A/K75A/K76A/R21S); test: Isothermal titration calorimetry, direct binding to CK2α; conditions: for Kd: ITC, 25°C, CK2α_KA, Tris 200 mM, NaCl 300 mM, 10% DMSO, single site binding model
T1 construct: CK2α_KA (residues 2 -329) contained four; His6 (N, cleaved yes); made in house; host or cells: Escherichia coli BL21(DE3)
T1 sequence (P68400 2-329 R21S/K74A/K75A/K76A): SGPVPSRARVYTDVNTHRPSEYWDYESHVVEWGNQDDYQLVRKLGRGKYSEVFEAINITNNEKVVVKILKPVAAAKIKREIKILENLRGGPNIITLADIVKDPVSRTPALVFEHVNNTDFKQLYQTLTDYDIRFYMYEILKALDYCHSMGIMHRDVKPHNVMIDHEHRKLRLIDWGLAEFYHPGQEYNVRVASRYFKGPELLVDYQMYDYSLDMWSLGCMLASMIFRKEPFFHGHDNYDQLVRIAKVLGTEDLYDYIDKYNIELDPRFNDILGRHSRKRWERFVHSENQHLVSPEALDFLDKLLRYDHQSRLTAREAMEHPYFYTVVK
Description: lysed using a high-pressure homogeniser.
The soluble supernatant was applied on a […]
mM NaCl, 1mM DTT, 1mM EDTA, pH 8.5). 100µL of the precision protease was loaded onto the […]
Pure protein was concentrated to 15 mg/mL and flash frozen in liquid N2. […]
1.4.3. Isothermal Calorimetry Titration
1.4.3.1. Direct binding assay
DMSO) and concentrated to 20-50 μM. Compounds in 100× stock solutions were diluted into the […]
Control titrations were performed, and the […]

HCT116 cells = test: cells; format: cell-based, human; conditions: 24 h
Description: (§1) page 47: 1.5. Biological experimental 1.5.1. […] The experiment was performed in duplicates. 1.5.2. […] 1.5.3. […] 46

U2OS cells [2] = test: cells; format: cell-based, human; conditions: 24 h
Description: as §1

U2OS cells [3] = test: Cell viability / apoptosis assay (CytoTox-Glo), 4 hour treatment; format: cell-based, human; conditions: after 4 hours
[4] = system: CK2β localisation in U2OS cells; test: Immunofluorescence imaging of subcellular localisation of CK2β; format: cell-based, human; conditions: 30 μM, 15 minute incubation, CK2β antibody
Description: (§2) CellCarrier Ultra) in 40 μL of growth medium.
(§3) 1.5.5. Co-localisation experiments […]
(§4) confocal microscope with a 40X water immersion objective. Images were acquired with excitation at […]
(§5) green, red and blue channel respectively.
(§6) The following primary antibodies were used:
(§7) Antibody Organelle stained Supplier and catalogue Working concentration […]
(§8) Calnexin Endoplasmic reticulum Invitrogen, PA5-34665 1:750
(§9) Hoechst nuclei stain was used to a working concentration of 1:5000. […]
(§10) concentration 4%). Cells were fixed for 15 minutes, washed with PBS (3x) and blocked with 3% BSA + 0.1 % […] for 5 minutes. The blocking solution was then removed and 40 μL of the primary antibodies in BSA added. The plate was stored in the dark, at 4 °C overnight. The primary antibodies were washed with PBS (3x) and 40 μL of the secondary antibodies and Hoechst nuclei stain in BSA added. The plate was kept at 4 °C for 1 hour, washed with PBS (3x) and imaged as described above. Images were analysed using Fiji (ImageJ) software.

U2OS and HCT116 cells = conditions: proliferation, growth rate, viability (Fig. S5-S7)
Description: All cell lines used were supplied by AstraZeneca cell bank as mycoplasma free. U2OS bone
osteosarcoma and HCT116 colon carcinoma cells were maintained in RPMI -1640 (1x, Sigma Aldrich,
R0883) supplemented with 2 mM L-glutamine (Gibco, 25030-149) and fetal bovine serum (FBS, Gibco
Life Technologies, 10270-106) at a final concentration of 10%, hereafter known as growth medium. All
cells were grown at 37°C/5% CO2 in a humidified environment and all the assays were performed
using these culturing conditions.
HCT116 cells were seeded at 2000 cells per well into two flat-bottomed 384-well plates (PerkinElmer
CellCarrier Ultra) in 40 μL of growth medium. After 24 hours, the peptides dissolved in DMSO (10 mM)
were added to the cells (to final concentrations of 100, 75, 50, 32, 25, 16, 10, 7.7, 5, 3.2, 0 μM) using
HP Tecan dispenser and DMSO normalised to a final concentration of 1% (v/v). Cells were then
incubated in the presence of the compounds for 4 days and the rate of growth monitored with
IncuCyte Zoom (plate day 4). […]
inhibition was calculated relative to DMSO controls, normalised against day 0 and GI50 values were
calculated using Graphpad Prism. […]
minutes at room temperature, luminescence was read on a multimode plate reader (EnVision, […]
dead cells was measured. […]
calculated by subtracting the luminescent signal resulting from experimental cell death from total
luminescence death. […]

CK2α/CK2β interaction = biological target: T2, CK2α/CK2β interaction (Homo sapiens, UniProt P68400); test: ITC competition assay: CK2β binding to CK2α alone and in the presence of peptide; conditions: 25°C, 100 μM peptide, preliminary assay
T2 construct: CK2α_WT was used (residues 2-329); His6 (N, cleaved yes); made in house; host or cells: Escherichia coli BL21(DE3)
T2 sequence (P68400 2-329): T1 sequence (P68400 2-329 R21S/K74A/K75A/K76A) with S20R, A73K, A74K, A75K
Description: (§11) We then wanted to investigate whether the peptides would be able to inhibit the binding of the β subunit to the α subunit. To this end, the binding affinity of the regulatory β subunit for the catalytic domain was determined via ITC (Kd 9 nM). This was then repeated in the presence of 100 μM P1-C4 and P2-C4 (ESI, Table S4 ^†). […] As one of the key roles of CK2β is to recruit substrates to the kinase, the effect of PPI inhibition on substrate phosphorylation was studied using CK2β dependent and independent substrates. […] It should be noted that the kinase assay was performed using the pre-formed CK2α/β complex as the ability of CK2α to phosphorylate eIF2β requires the presence of the CK2β subunit.
1.4.3.2. Competition assay […]
concentrated to 4-6 μM. CK2β (9.3 mg/mL, 20 mM Tris pH 8.5, 500 mM NaCl) was diluted in Tris buffer (200 mM, NaCl, 300 mM, 10% DMSO) and concentrated to 40 μM. In a typical experiment, […]
performed at 150 second intervals. The syringe was loaded with CK2β and rotated at 750 rpm. The same experiment was repeated in the presence of the peptide s: compounds at 1 mM in DMSO were added to the solutions of CK2α and CK2β (prepared as described above) to a final concentration of […]
binding model using Origin software. […]
(CK2β-RAD) 200s, baseline 120s (assay buffer), control loading 200s (RAD), baseline 150s (assay buffer), ligand binding (association) 400s (CK2α K74A and CAM7117) and ligand dissociation 600s (assay buffer), followed by regeneration and next cycles. […]
GraphPad. The results are the average of 4 repeats and error shown as SEM.
Figure S10- Sensorgrams of the BLI competition experiments to assess the ability of P2-C4 to […] the CK2α/CK2β-RAD complex. a) Concentration of peptide ranging from 10 to 0.025 μM and 0 μM. b) Concentration of peptide ranging from 10 to 5 nM and 0 nM.
(1 picture or pasted object on this page, not shown here)

CK2α/CK2β-RAD complex = biological target: T3, CK2α/CK2β-RAD complex (Homo sapiens, UniProt P68400, K74A/K75A/K76A/R21S); test: Competition Bio-Layer Interferometry (BLI): formation of the CK2α/CK2β-RAD complex; format: binding; conditions: biotin-labelled CK2β-RAD 50 nM on streptavidin sensors, CK2α 50 nM, 20mM TRIS pH 8.0, 350mM NaCl, 0.5% Tween, average of 4 repeats, SEM, read-out: IC50, prevention of formation of the CK2α/CK2β-RAD complex
T3 construct: CK2α_KA (residues 2 -329) contained four; His6 (N, cleaved yes); made in house; host or cells: Escherichia coli BL21(DE3)
T3 sequence (P68400 2-329 R21S/K74A/K75A/K76A): T1 sequence (P68400 2-329 R21S/K74A/K75A/K76A)
Description: Octet RED96 (ForteBio) instrument was used for BLI analysis of biotin-labelled CK2β-RAD/CAM7117 interactions. Experiments were performed using SA-Streptavidin biosensors (ForteBio), which were regenerated with 10mM glycine, pH 1.7. 20mM TRIS pH 8.0, 350mM NaCl, 0.5% Tween was used as the assay buffer. For binding assays pre-wet sensors were loaded with biotin labelled CK2β-RAD protein at 50 nM in assay buffer. CK2α K74A was prepared at 50 nM in assay buffer and dilution series (from 0 to 10 μM) of CAM7117 were prepared in the assay buffer. The following experimental setup was used for each measurement cycle: regeneration 3× 5s, baseline 120s, sample loading (CK2β-RAD) 200s, baseline 120s (assay buffer), control loading 200s (RAD), baseline 150s (assay buffer), ligand binding (association) 400s (CK2α K74A and CAM7117) and ligand dissociation 600s (assay buffer), followed by regeneration and next cycles. During the control loading stage all […]
Regenerated SA-Streptavidin biosensors loaded with biotin labelled RAD were used to perform referencing. Data was processed using ForteBio Analysis 7.1 software and IC50 was calculated using GraphPad. The results are the average of 4 repeats and error shown as SEM. […]

CK2α/β holoenzyme = biological target: T4, CK2α/β holoenzyme (Homo sapiens, UniProt P68400); test: ADP-Glo kinase assay, CK2β-dependent substrate eIF2β, pre-formed CK2α/β complex; format: biochemical; conditions: 50 nM CK2α_WT + 50 nM CK2β_WT pre-formed, 25 μM ATP, 50 μM eIF2β peptide, 25 °C, 120 min, at least three independent repeats, read-out: IC50, inhibition of phosphorylation of the CK2β-dependent substrate eIF2β
T4 construct: CK2α_WT was used (residues 2-329); His6 (N, cleaved yes); made in house; host or cells: Escherichia coli BL21(DE3)
T4 sequence (P68400 2-329): T1 sequence (P68400 2-329 R21S/K74A/K75A/K76A) with S20R, A73K, A74K, A75K
Description: as §11
(§12) The kinase assays were performed using the ADP-Glo™ kinase assay kit (Promega). 50 nM CK2α_WT was incubated in the kinase reaction buffer (40 mM Tris pH 7.5, 200 mM NaCl, 20 mM MgCl2, 0.1 mg/mL BSA, 25 μM ATP, 50 μM substrate peptide (RRRADDSDDDD, Enzo Life Sciences […]
(§13) Inc. or eIF2β peptide […]), 5% (v/v) DMSO) in the presence of different concentrations of the inhibitor at 25 °C for 120 min. […] The luminescence was recorded using a PHERAstar FS plate reader (BMG LABTECH) with an integration time of 1 sec.
(§14) Percentage inhibition was calculated relative to a DMSO control after subtraction of the measurement for basal ATPase activity in the absence of substrate. […]

CK2α [5] = biological target: T5, CK2α (Homo sapiens, UniProt P68400); test: ADP-Glo kinase assay, β-independent substrate peptide RRRADDSDDDD; format: biochemical; conditions: 50 nM CK2α_WT, 25 μM ATP, 50 μM substrate, 25 °C, 120 min
T5 construct: CK2α_WT was used (residues 2-329); His6 (N, cleaved yes); made in house; host or cells: Escherichia coli BL21(DE3)
T5 sequence (P68400 2-329): T1 sequence (P68400 2-329 R21S/K74A/K75A/K76A) with S20R, A73K, A74K, A75K
Description: as §11, §12, §13, §14

U2OS cells [6] = format: cell-based, human
Description: as §2, §3, §4, §5, §6, §7, §8, §9, §10

## CC(=O)NCC(=O)N[C@H]1Cn2cc(nn2)-c2cc(C(=O)NCCCCCC(=O)NCCCCCC(=O)N[C@H](CCCNC(=N)N)C(=O)N[C@H](CCCNC(=N)N)C(=O)N[C@H](CCCNC(=N)N)C(N)=O)cc(c2)-c2cn(nn2)C[C@@H](C(=O)NCC(=O)NCC(N)=O)NC(=O)[C@H](Cc2c[nH]cn2)NC(=O)[C@H](Cc2c[nH]c3ccccc23)NC(=O)[C@H](CCCCN)NC(=O)[C@H](Cc2ccccc2)NC(=O)CNC(=O)[C@H](Cc2ccc(O)cc2)NC(=O)[C@H](CC(C)C)NC(=O)[C@H](CCCNC(=N)N)NC1=O [CAM7117]
CK2α [1]
  Kd: 200 nM
HCT116 cells
  GI50: 76000 ± 4000 nM
U2OS cells [2]
  GI50: 32000 ± 2000 nM
U2OS cells [3]
  Induction of apoptosis: induced apoptosis
[4]
  Nuclear localisation of CK2β after treatment: little or no fluorescence associated with the CK2β antibody was found in the nucleus

## C#Cc1cc(C#C)cc(C(=O)NCCCCCC(=O)NCCCCCC(=O)N[C@H](CCCNC(=N)N)C(=O)N[C@H](CCCNC(=N)N)C(=O)N[C@H](CCCNC(=N)N)C(N)=O)c1 [F1C4]
U2OS and HCT116 cells
  Biological effects in cancer cells: No biological effects

## CC(=O)NCC(=O)N[C@H]1Cn2cc(nn2)-c2cc(C(=O)O)cc(c2)-c2cn(nn2)C[C@@H](C(=O)NCC(=O)NCC(N)=O)NC(=O)[C@H](Cc2c[nH]cn2)NC(=O)[C@H](Cc2c[nH]c3ccccc23)NC(=O)[C@H](CCCCN)NC(=O)[C@H](Cc2ccccc2)NC(=O)CNC(=O)[C@H](Cc2ccc(O)cc2)NC(=O)[C@H](CC(C)C)NC(=O)[C@H](CCCNC(=N)N)NC1=O [P2-C4]
CK2α [1]; ITC Kd, P2-C4 vs P2
  Improvement in Kd of the constrained peptide compared to the linear variant P2: 300 fold
CK2α [1]
  Kd: 150 nM
CK2α/CK2β interaction
  Binding of CK2β to CK2α in the presence of peptide: no binding of CK2β to CK2α was detected
CK2α/CK2β-RAD complex
  IC50: 150 ± 19 nM
CK2α/β holoenzyme
  IC50: 206 ± 29 nM
CK2α [5]
  Effect on phosphorylation of a β-independent substrate peptide (RRRADDSDDDD): did not affect the phosphorylation

## GXF2C4RLYGFKWHXF2C4GG (sidechain bridge or staple) [P2-F2C4, FITC-labelled analogue of CAM7117]
U2OS cells [6]
  Cellular uptake / cell permeability: successfully internalised

From paper PMC6530537, “Efficient development of stable and highly functionalised peptides targeting the CK2α/CK2β protein–protein interaction” (Chemical Science, 2019)
